The text below walks through data of patent US4939132A, “Novel 5-alkylsulfonylsalicylanilides and microbiocidal compositions for controlling the growth of microorganisms” (The Research Foundation of State University of New York, priority 1985, dated 1990).

Converted amounts (≈) assume the structure as drawn. Read-outs that look alike come from different tables or passages of the source. Some results are limits rather than exact numbers.

In data set [1] the test system is A. viscosus. The data set is described as follows: In vitro plaque growth inhibition (bovine enamel slabs), A. viscosus. It is filed as cell-based, Actinomyces viscosus. The following applies: for Total Growth ID50 (50% growth inhibition dosage): 2 min contact, about 24 h incubation, aerobic. The method, then:
(§1) Various compositions prepared in accord with the above examples were tested in vitro for plaque inhibition in comparison with prior art compounds. The test used is set forth in detail in Comparison of Antiplaque Agents Using an In Vitro Assay Reflecting Oral Conditions by R. T. Evans et al, Journal of Dental Research, June 1977.
(§2) In summary incisor teeth from bovine mandibles, obtained immediately after slaughter, are cut into 4×8 mm enamel slabs and sterilized in a 0.15M NaCl solution buffered at a pH of 7.5 with 0.02M sodium phosphate (PBS soln). Before use the slabs are coated with sterile saliva and then rinsed twice in sterile PBS. The slabs are then placed in small plastic petri dishes containing various concentrations of the compositions to be tested. The test solution used in accordance is a solution of the test compound in a mixture of 20% by volume of ethanol, 40% by volume of propylene glycol and 40% by volume of a pH 8 aqueous buffer solution containing mono and di sodium phosphates. The slabs are left in the solution of the test compound for two minutes and then rinsed in sterile PBS solution. After rinsing, each slab is placed in a 10×75 mm cotton stoppered glass culture tube containing 1 ml of sucrose-broth culture medium which is then innoculated with a 24 hour culture of the desired microorganism standardized to an optical density (OD)540 of 0.75 for A. viscosus and S. mutans. […] of the inoculation medium is used. A. viscosus is incubated under aerobic conditions and the S. mutans is incubated under anaerobic conditions (5% CO2 and 95% H2). After incubation for about 24 hours the nonadherent organisms are removed and the tube is rinsed twice with 0.5 ml of PBS and the washings combined with the nonadherent organisms.
(§3) The tooth slabs are then transferred to 1 ml of 0.1 N NaOH and 1 ml of 0.1N NaOH is also added to the glass culture tubes. The slabs and tubes are then sonically agitated, if necessary to suspend the adherent organisms. The optical density of each of the three fractions is then measured on a spectophotometer. The tests are repeated with varying concentrations of the compositions being tested until growth inhibition curves can be developed. The 50% growth inhibition dosages (ID50) are then determined with a reliability of +or -80% or better. The compounds tested are samples (a)-(e) as follows: (a) tribromosalan; (b) 5-n-decanoyl-4'-nitrosalicylanilide; (c) 5-n-decylsulfonyl-4'-nitro-salicylanilide; (d) 5-n-decylsulfonyl-4'-trifluoromethyl-salicylanilide; and, (e) 5-n-decylsulfonyl-3'-trifluoromethyl-salicylanilide.

Data set [2] has as its system S. mutans. In words: In vitro plaque growth inhibition (bovine enamel slabs), S. mutans. Type of data set: cell-based, Streptococcus mutans. The following applies: for Total Growth ID50 (50% growth inhibition dosage): 2 min contact, about 24 h incubation, anaerobic. Here is the method:
as §1, §2, §3

In data set [3] the test system is S. mutans. The data set is described as follows: Tube dilution assay (Macro-Broth Dilution Method), S. mutans. It is filed as cell-based. The following applies: Streptococcus mutans, read-out: Minimal Inhibitory Concentration. Here is the method: (§4) Various compositions prepared in accord with the above examples were tested in vitro for minimal concentration to inhibit or kill organisms in comparison to prior art compounds. The test used is set forth in detail in Manual of Clinical Microbiology, third edition, pages 456-475 (Macro-BrothDilution Method), 1980, American society for microbiology.
(§5) In the test procedure serial dilutions of the antimicrobic compound are innoculated with the organism to be inhibited and incubated. The minimum inhibitory concentration (MIC) is the lowest concentration of antimicrobic compound that is achieved without visible growth of the organism. The test method comprises preparing a stock solution of antimicrobic compound and diluting it in a Meuller-Hinton broth. A series of sterile 13 by 100 mm, cotton-plugged, test tubes are set out wherein 2 ml of the broth diluted antimicrobic solution (working solution) is added to the first tube and to each remaining tube is added 1.0 ml of non-antimicrobic containing broth. 1.0 ml of working solution from the first tube is transferred to the second tube and thoroughly mixed therewith. Thereafter, 1.0 ml of the mixed solution is transferred to the third tube and mixed with the process continuing through the dilution steps desired. The tubes are then incubated at 35° C. for 16 to 20 hours. […] Various antimicrobic compounds designated (a)-(i) were tested for minimum inhibitory concentration in accord with the above procedure. Compounds (a)-(e) correspond to compounds (a)-(e) of example 9. Compounds (f)-(i) are as follow s: (f) 5-n -octylsulfonyl-4'-nitrosalicylanilide; (g) 5-n-decylsulfony-4'-bromosalicylanilide; (h) 5-n-hexylsulfonyl-4'-bromosalicylanilide; and, (i) 5-n-dodecylsulfonyl-4'-trifluoromethyl salicylanilide.

Data set [4] deals with A. viscosus. The data set is described as follows: Tube dilution assay (Macro-Broth Dilution Method), A. viscosus. Type of data set: cell-based. The following applies: Actinomyces viscosus, read-out: Minimal Inhibitory Concentration. Here is the method:
as §4, §5

Data set [5] relates to S. aureus. The data set is described as follows: Tube dilution assay (Macro-Broth Dilution Method), S. aureus. The following applies: Staphylococcus aureus, Mueller-Hinton broth, 35° C., 16 to 20 hours, read-out: Minimal Inhibitory Concentration. Type of data set: cell-based. The method, then:
as §4, §5

Data set [6] relates to S. pyogenes. In words: Tube dilution assay (Macro-Broth Dilution Method), S. pyogenes. It is filed as cell-based. The note with it: Streptococcus pyogenes, read-out: Minimal Inhibitory Concentration. Here is the method: as §4, §5
In data set [7] the test system is S. epidermidis. The data set is described as follows: Tube dilution assay (Macro-Broth Dilution Method), S. epidermidis. Type of data set: cell-based. The following applies: Staphylococcus epidermidis, read-out: Minimal Inhibitory Concentration. Here is the method: as §4, §5
The nature of data set [8]: Acute oral toxicity, single dose. Type of data set: in vivo. The note with it: rat, in vivo; single dose oral route, Sprague-Dawley white rats. The method, then: (§6) Twelve female white rats averaging 250-300 grams in weight were fasted overnight and divided into three groups of four animals each. In one group each animal received, by gavage tube, 4 ml of an aqueous solution of 1% methylcellulose, the drug delivery vehicle. This group was the control group. The remaining two groups received doses of 750 and 2500 mg/kg respectively of 5-n-decylsulfonyl-4'-trifluoromethyl-salicylanilide in 4-ml aqueous 1% methyl cellulose suspension.
(§7) Within the first week following this single dose only one animal died.
(§8) An autopsy was performed and the cause of death was attributed to a punctured thoracic cavity during administration of the drug.

The test system of data set [9] is white rats. The data set is described as follows: Acute oral toxicity, single dose. It is filed as in vivo. The following applies: 2,500 mg/kg dose group, eighth day; attributed to a punctured thoracic cavity during administration. Here is the method:
as §6, §7, §8

Data set [10] deals with man. The note with it: in man; cited from earlier work.
The mark [11] stands for this setting: S. mutans, Mueller-Hinton broth, 35° C., 16 to 20 hours.
The mark [12] stands for this setting: A. viscosus, Mueller-Hinton broth, 35° C., 16 to 20 hours.
Where [13] appears, read: S. pyogenes, Mueller-Hinton broth, 35° C., 16 to 20 hours.
Where [14] appears, read: S. epidermidis, Mueller-Hinton broth, 35° C., 16 to 20 hours.

For the molecule `O=C(Nc1ccc(Br)cc1)c1cc(Br)cc(Br)c1O` [(a), tribromosalan, reference compound], the “Total Growth ID50 (50% growth inhibition dosage)” value in data set [1] is given as 8.8 × 10^-4; in data set [2], 1.2 × 10^-7. Besides, the figures for the “Maximum % Inhibition” value in data set [1] (at 0.2%) and in data set [2] (at 0.2%) were 53% and 46%, respectively. Also, the MIC in data set [3] was determined as 1 µg/mL (≈ 2.22 µM); in data set [4], 0.5 µg/mL (≈ 1.11 µM); in data set [5], 1 µg/mL (≈ 2.22 µM); in data set [6] it was 0.5 µg/mL (≈ 1.11 µM); in [7], 0.5 µg/mL (≈ 1.11 µM).

For the molecule `CCCCCCCCCC(=O)c1ccc(O)c(C(=O)Nc2ccc([N+](=O)[O-])cc2)c1` [(b), 5-n-decanoyl-4'-nitrosalicylanilide, reference compound], the “Total Growth ID50 (50% growth inhibition dosage)” value is listed as 1.1 × 10^-4 in [1] and 2.3 × 10^-2 in data set [2]. In addition, the entries for the “Maximum % Inhibition” value in data set [1] (at 0.2%) and in [2] (at 0.2%) were 90% and 59%, respectively. Further, the MIC in [3] (setting [11]) was 5 µg/mL (≈ 12.1 µM); in [4] (setting [12]) it was 0.05 µg/mL (≈ 0.121 µM); in [5], 0.1 µg/mL (≈ 0.242 µM); in [6] (setting [13]), 0.1 µg/mL (≈ 0.242 µM); in [7] (setting [14]), 0.1 µg/mL (≈ 0.242 µM).

As for `CCCCCCCCCCS(=O)(=O)c1ccc(O)c(C(=O)Nc2ccc([N+](=O)[O-])cc2)c1` [(c), 5-n-decylsulfonyl-4'-nitro-salicylanilide], the “Total Growth ID50 (50% growth inhibition dosage)” value in [1] is listed as 2.3 × 10^-4; in [2] it was 1.9 × 10^-4. Further, the “Maximum % Inhibition” value in [1] (at 0.2%) came to 93%; in data set [2] (at 0.2%), 80%. Besides, the MIC in [3] (setting [11]), in data set [4] (setting [12]), in [5], in data set [6] (setting [13]) and in [7] (setting [14]) was 0.5 µg/mL (≈ 1.08 µM) in each case.

Regarding `CCCCCCCCCCS(=O)(=O)c1ccc(O)c(C(=O)Nc2ccc(C(F)(F)F)cc2)c1` [(d), 5-n-decylsulfonyl-4'-trifluoromethyl-salicylanilide], the figures for the “Total Growth ID50 (50% growth inhibition dosage)” value in [1] and in data set [2] were 0.9 × 10^-4 and 1.9 × 10^-3, respectively. Also, the “Maximum % Inhibition” value in data set [1] (at 0.2%) is 95%; in data set [2] (at 0.2%) it was 76%. Also, the MIC in [3] (setting [11]) amounted to 0.5 µg/mL (≈ 1.03 µM); in [4] (setting [12]), 0.1 µg/mL (≈ 0.206 µM); in data set [5], 0.5 µg/mL (≈ 1.03 µM); in [6] (setting [13]), 0.5 µg/mL (≈ 1.03 µM); in data set [7] (setting [14]), 0.1 µg/mL (≈ 0.206 µM). In [8], this molecule came in with an LD50 above 2500 mg/kg. Besides, the deaths entry in data set [9] is listed as “a second animal died”.

Regarding `CCCCCCCCCCS(=O)(=O)c1ccc(O)c(C(=O)Nc2cccc(C(F)(F)F)c2)c1` [(e), 5-n-decylsulfonyl-3'-trifluoromethyl-salicylanilide], the “Total Growth ID50 (50% growth inhibition dosage)” value in [1] is given as 6.8 × 10^-4; in data set [2], 2.2 × 10^-3. The results for the “Maximum % Inhibition” value in [1] (at 0.1%) and in data set [2] (at 0.1%) were 83% and 47%, respectively. The MIC in data set [3] (setting [11]) is 5 µg/mL (≈ 10.3 µM); in data set [4] (setting [12]), 0.5 µg/mL (≈ 1.03 µM); in data set [5], 20 µg/mL (≈ 41.2 µM); in data set [6] (setting [13]), 0.5 µg/mL (≈ 1.03 µM); in data set [7] (setting [14]), 0.5 µg/mL (≈ 1.03 µM).

Regarding `CCCCCCCCS(=O)(=O)c1ccc(O)c(C(=O)Nc2ccc([N+](=O)[O-])cc2)c1` [(f), 5-n-octylsulfonyl-4'-nitrosalicylanilide], the MIC in data set [3] (setting [11]) turned out to be 0.5 µg/mL (≈ 1.15 µM); in data set [4] (setting [12]), 1 µg/mL (≈ 2.3 µM); in [5] it was 5 µg/mL (≈ 11.5 µM); in data set [6] (setting [13]) it was 5 µg/mL (≈ 11.5 µM); in [7] (setting [14]), 5 µg/mL (≈ 11.5 µM).

Regarding `CCCCCCCCCCS(=O)(=O)c1ccc(O)c(C(=O)Nc2ccc(Br)cc2)c1` [(g), 5-n-decylsulfony-4'-bromosalicylanilide], the MIC is 1 µg/mL (≈ 2.01 µM) in data set [3] (setting [11]); 0.5 µg/mL (≈ 1.01 µM) in data set [4] (setting [12]); 5 µg/mL (≈ 10.1 µM) in [5]; 0.5 µg/mL (≈ 1.01 µM) in data set [6] (setting [13]); 0.5 µg/mL (≈ 1.01 µM) in data set [7] (setting [14]).

For `CCCCCCS(=O)(=O)c1ccc(O)c(C(=O)Nc2ccc(Br)cc2)c1` [(h), 5-n-hexylsulfonyl-4'-bromosalicylanilide], the MIC in data set [4] (setting [12]) turned out to be 5 µg/mL (≈ 11.4 µM); in data set [5] it was 5 µg/mL (≈ 11.4 µM); in data set [6] (setting [13]) it was 5 µg/mL (≈ 11.4 µM); in [7] (setting [14]) it was 10 µg/mL (≈ 22.7 µM).

For `CCCCCCCCCCCCS(=O)(=O)c1ccc(O)c(C(=O)Nc2ccc(C(F)(F)F)cc2)c1` [(i), 5-n-dodecylsulfonyl-4'-trifluoromethyl salicylanilide], the MIC in [4] (setting [12]) is 0.05 µg/mL (≈ 0.0973 µM); in data set [5] it was 0.5 µg/mL (≈ 0.973 µM); in data set [6] (setting [13]), 0.5 µg/mL (≈ 0.973 µM); in data set [7] (setting [14]), 0.1 µg/mL (≈ 0.195 µM).

Turning to tetrachlorosalicylanilide, the allergic reactions entry in data set [10] is recorded as “has been shown to produce allergic reactions in man”.
